Each structure is given as a SMILES string.

The values below come from ChEMBL document CHEMBL5465560, “Selectivity Literature for EUbOPEN Chemogenomic Library” (2024).

Test [1] addresses T1, cAMP-dependent protein kinase catalytic subunit PRKX (Homo sapiens) (UniProt P51817).
T1 sequence (whole entry): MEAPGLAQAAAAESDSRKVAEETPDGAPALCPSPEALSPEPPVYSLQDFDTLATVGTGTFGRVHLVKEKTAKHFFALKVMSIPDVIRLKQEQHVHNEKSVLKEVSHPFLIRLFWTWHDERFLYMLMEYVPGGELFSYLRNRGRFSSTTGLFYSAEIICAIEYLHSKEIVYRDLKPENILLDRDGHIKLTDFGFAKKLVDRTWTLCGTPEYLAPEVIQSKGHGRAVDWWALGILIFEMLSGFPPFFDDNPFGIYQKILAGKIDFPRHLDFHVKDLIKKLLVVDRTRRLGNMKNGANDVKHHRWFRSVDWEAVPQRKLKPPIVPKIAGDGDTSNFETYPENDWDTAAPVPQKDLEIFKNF
The test is described as follows: Selectivity interaction (Upstate Kinase Profiler service (Millipore)) EUB0000056c PRKX. The note with it: at 1 µM.

The target of test [2] is T2, Dual specificity mitogen-activated protein kinase kinase 6 (Homo sapiens) (UniProt P52564).
T2 sequence (whole entry): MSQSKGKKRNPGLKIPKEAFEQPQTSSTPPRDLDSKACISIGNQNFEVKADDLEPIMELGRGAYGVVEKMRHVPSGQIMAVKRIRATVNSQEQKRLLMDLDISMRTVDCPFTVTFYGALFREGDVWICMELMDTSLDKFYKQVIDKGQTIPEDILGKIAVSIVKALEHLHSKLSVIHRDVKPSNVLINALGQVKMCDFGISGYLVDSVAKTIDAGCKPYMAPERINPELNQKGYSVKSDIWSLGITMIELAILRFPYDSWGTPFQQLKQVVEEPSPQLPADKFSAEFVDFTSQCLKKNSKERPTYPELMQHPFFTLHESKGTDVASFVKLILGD
The test is described as follows: Selectivity interaction (KinomeScan (DiscoverX)) EUB0000045b MAP2K6.

Test [3] has as its target T3, Serine/threonine-protein kinase ULK1 (Homo sapiens) (UniProt O75385).
T3 sequence (whole entry): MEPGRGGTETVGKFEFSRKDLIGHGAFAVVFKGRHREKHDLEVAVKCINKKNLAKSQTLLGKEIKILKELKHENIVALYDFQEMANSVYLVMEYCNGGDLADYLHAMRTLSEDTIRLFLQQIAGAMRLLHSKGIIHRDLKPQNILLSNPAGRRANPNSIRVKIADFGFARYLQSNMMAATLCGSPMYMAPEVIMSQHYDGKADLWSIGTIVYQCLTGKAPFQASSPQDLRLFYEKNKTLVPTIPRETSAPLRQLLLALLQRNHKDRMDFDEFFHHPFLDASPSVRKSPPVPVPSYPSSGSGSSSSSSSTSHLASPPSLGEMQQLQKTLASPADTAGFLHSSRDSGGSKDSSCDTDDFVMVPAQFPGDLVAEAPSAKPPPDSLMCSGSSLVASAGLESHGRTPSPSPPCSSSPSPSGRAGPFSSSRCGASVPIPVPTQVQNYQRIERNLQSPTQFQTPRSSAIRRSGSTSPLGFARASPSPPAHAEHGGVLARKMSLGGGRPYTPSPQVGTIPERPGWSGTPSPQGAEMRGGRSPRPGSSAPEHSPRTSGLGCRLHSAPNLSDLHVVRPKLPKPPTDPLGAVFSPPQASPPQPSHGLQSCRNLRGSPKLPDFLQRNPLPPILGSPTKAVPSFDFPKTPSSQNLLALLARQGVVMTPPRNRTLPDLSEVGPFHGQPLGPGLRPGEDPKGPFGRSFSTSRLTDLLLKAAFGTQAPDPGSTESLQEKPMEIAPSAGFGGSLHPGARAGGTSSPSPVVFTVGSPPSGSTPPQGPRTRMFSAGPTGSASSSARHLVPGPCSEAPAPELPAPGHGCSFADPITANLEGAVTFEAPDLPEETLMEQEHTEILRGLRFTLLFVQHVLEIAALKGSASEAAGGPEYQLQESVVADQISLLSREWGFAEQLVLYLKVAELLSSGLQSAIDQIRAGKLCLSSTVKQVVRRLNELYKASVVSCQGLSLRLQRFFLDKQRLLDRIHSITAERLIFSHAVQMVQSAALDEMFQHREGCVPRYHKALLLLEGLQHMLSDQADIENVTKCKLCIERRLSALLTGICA
Put plainly: Selectivity interaction (KinomeScan (DiscoverX)) EUB0000607a ULK1. The note with it: at 10 µM.

Test [4] concerns the target Cyclin-dependent kinase 5 (Homo sapiens, UniProt Q00535). Put plainly: Selectivity interaction (ActivX KiNativ screen (kinase selectivity in THP-1 cell lysates)) EUB0000639a CDK5. The note with it: lysate, at 0.2 µM. Type of test: subcellular.
The target in test [5] is CDK4/Cyclin D3 (Homo sapiens) (UniProt P11802+P30281). Put plainly: (§1) Selectivity interaction (KinomeScan (DiscoverX)) EUB0000229b CDK4. In kind it is protein-complex assay. The settings on record: at 10 µM.
The target of test [6] is Cyclin-dependent kinase 4/cyclin D1 (Homo sapiens) (UniProt P11802+P24385). The test is described as §1. Type of test: protein-complex assay. The settings on record: at 10 µM.
Test [7] deals with T4, Serine/threonine-protein kinase 3 (Homo sapiens) (UniProt Q13188).
T4 sequence (whole entry): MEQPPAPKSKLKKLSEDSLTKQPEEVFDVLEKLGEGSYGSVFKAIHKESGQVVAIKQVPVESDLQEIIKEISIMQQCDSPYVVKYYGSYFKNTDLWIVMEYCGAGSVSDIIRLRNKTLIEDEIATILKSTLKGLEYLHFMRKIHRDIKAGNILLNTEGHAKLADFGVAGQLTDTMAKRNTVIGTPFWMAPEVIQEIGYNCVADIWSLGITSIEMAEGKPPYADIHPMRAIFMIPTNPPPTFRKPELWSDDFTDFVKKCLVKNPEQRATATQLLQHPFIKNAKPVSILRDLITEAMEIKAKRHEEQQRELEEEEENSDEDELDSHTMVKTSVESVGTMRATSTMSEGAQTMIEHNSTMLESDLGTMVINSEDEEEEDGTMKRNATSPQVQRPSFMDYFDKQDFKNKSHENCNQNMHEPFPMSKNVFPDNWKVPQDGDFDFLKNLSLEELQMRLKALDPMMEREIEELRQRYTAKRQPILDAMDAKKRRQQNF
Put plainly: Selectivity interaction (KinomeScan (DiscoverX)) EUB0000229b STK3. The settings on record: at 10 µM.

Test [8] concerns the target Dual specificity mitogen-activated protein kinase kinase 2 (Homo sapiens) (UniProt P36507). The test is described as follows: Selectivity interaction (KinomeScan (DiscoverX)) EUB0001619a MAP2K2. The note with it: at 1 µM.

Chain of Cyclin-dependent kinase 5 (Q00535 whole entry, looked up): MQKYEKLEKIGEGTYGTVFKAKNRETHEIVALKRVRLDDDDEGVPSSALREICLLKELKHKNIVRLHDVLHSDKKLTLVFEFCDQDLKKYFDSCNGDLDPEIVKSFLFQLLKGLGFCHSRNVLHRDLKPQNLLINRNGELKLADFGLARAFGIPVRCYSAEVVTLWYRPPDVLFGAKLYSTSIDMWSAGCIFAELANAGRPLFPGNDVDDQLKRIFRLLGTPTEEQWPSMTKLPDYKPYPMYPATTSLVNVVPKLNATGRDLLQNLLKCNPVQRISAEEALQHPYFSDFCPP
Chain of Dual specificity mitogen-activated protein kinase kinase 2 (Homo sapiens) (P36507 whole entry): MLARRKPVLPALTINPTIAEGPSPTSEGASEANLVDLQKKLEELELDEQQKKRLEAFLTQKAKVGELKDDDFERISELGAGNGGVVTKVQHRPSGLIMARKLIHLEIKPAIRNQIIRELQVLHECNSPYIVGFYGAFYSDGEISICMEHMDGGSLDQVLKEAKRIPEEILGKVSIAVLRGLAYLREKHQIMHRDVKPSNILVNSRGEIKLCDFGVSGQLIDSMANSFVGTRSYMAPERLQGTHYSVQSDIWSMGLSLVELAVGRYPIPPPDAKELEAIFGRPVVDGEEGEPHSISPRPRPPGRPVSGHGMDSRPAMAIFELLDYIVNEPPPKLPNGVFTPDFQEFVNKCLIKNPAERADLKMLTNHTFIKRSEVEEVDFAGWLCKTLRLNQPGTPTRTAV

On to `Cc1ccc(-c2ccc3c(ccc4sc5c(c43)NC[C@@H](C)NC5=O)n2)cn1`, for which the % of inhibition in test [1] came out at 8%.

Regarding `C=CC(=O)Nc1cc(-n2c(=O)ccc3cnc4ccc(-c5ccc(NS(C)(=O)=O)cc5)cc4c32)ccc1C`, the values for the % of control in test [2] (at 1 µM) and in test [2] (at 10 µM) were 100% and 70%, respectively.

`CNC(=O)Nc1ccc(-c2nc(N3CC4CCC(C3)O4)c3cnn(C4CCC5(CC4)OCCO5)c3n2)cc1` showed a % of control in test [3] of 100%.

On to `CC[C@@H]1[C@H](F)C(=O)N[C@@H]1COc1nccc2cc(C(N)=O)c(OC)cc12` [ZIMLOVISERTIB], for which, in test [4], the % of inhibition is -6.8%.

`COc1cc(N(C)c2ccnc3ccc(C(F)(F)F)cc23)cc(OC)c1OC`: the figures for the % binding in test [5], in test [6] and in test [7] were 94%, 99% and 93%, respectively.

`N#Cc1cccc(-c2c[nH]c3ncnc(N4CCOCC4)c23)c1`: the % of control in test [8] was 19%.
